Experiments:
[1] = test system: HBV replication in HepAD38 cells; test: Anti-HBV replication assay in HepAD38 cells (QPCR of extracellular HBV DNA); format: cell-based, HBV (genotype D, serotype ayw); conditions: Hepatitis B virus, 168 h, 7 days incubation, extracellular HBV DNA by QPCR, read-out: Anti-HBV EC50
Method in brief: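 Tet-off HepAD38, 7-day compound exposure ([…], 1 log10 steps, DMSO vehicle), 37 °C. Extracellular HBV DNA by QPCR, copies/mL via standard curve, % inhibition vs vehicle, EC50 by 4-parameter regression. Entecavir as positive control.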

[2] = In vitro cytotoxicity assay (MTT cell viability) in HepG2 cells; format: cell-based, human; conditions: human
Method in brief: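 Viability measured by MTT conversion, absorbance at 492 nm, as percent of vehicle-treated wells. Compounds spanned 30 μM to 1.0 nM in half-log steps over a 7-day exposure of parental HepG2 cells; CC50 derived by 4-parameter curve fit.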

Row | SMILES | EC50 [1] [nM] | CC50 at 7 days [2] [nM]
1 | Cc1cc(NC(=O)c2c(Cl)c(C(=O)C(=O)NCC(C)(C)O)n3c2CCC3)cnc1F [Example 578, 6-chloro-N-(6-fluoro-5-methylpyridin-3-yl)-5-(2-((2-hydroxy-2-methylpropyl)amino)-2-oxoacetyl)-2,3-dihydro-1H-pyrrolizine-7-carboxamide] | 500 to 1000 | > 30000
2 | COCC(C)(C)NC(=O)C(=O)c1c(C)c(C(=O)Nc2ccc(F)c(C)c2)c(C)n1CCF [Example 241, N-(4-fluoro-3-methylphenyl)-1-(2-fluoroethyl)-5-(2-((1-methoxy-2-methylpropan-2-yl)amino)-2-oxoacetyl)-2,4-dimethyl-1H-pyrrole-3-carboxamide] | < 50 | > 30000
3 | Cc1cc(NC(=O)c2c(C)c(C(=O)C(=O)NC(C)(C)CO)n(C)c2C)ccc1F [Example 8, N-(4-fluoro-3-methylphenyl)-5-(2-((1-hydroxy-2-methylpropan-2-yl)amino)-2-oxoacetyl)-1,2,4-trimethyl-1H-pyrrole-3-carboxamide] | < 50 | > 30000
4 | Cc1c(C(=O)Nc2cc(F)c(F)c(F)c2)c(Cl)c(C(=O)C(=O)NC(C)(C)C)n1C [Example 369, 5-(2-(tert-butylamino)-2-oxoacetyl)-4-chloro-1,2-dimethyl-N-(3,4,5-trifluorophenyl)-1H-pyrrole-3-carboxamide] | < 50 | > 30000
5 | CCn1c(C)c(C(=O)Nc2ccc(F)c(C)c2)c(C)c1C(=O)C(=O)NC1(C(F)(F)F)CCOCC1 [Example 285, 1-ethyl-N-(4-fluoro-3-methylphenyl)-2,4-dimethyl-5-(2-oxo-2-((4-(trifluoromethyl)tetrahydro-2H-pyran-4-yl)amino)acetyl)-1H-pyrrole-3-carboxamide] | < 50 | > 30000
6 | CCn1c(C)c(C(=O)Nc2ccc(F)c(C)c2)c(C)c1C(=O)C(=O)N[C@]1(C)CC[C@@H](O)CC1 [Example 696] | < 50 | > 30000
7 | Cc1nnc(C2(NC(=O)C(=O)c3c(C)c(C(=O)Nc4ccc(F)c(C)c4)c(C)n3CCF)CC2)o1 [Example 201, N-(4-fluoro-3-methylphenyl)-1-(2-fluoroethyl)-2,4-dimethyl-5-(2-((1-(5-methyl-1,3,4-oxadiazol-2-yl)cyclopropyl)amino)-2-oxoacetyl)-1H-pyrrole-3-carboxamide] | 50 to 499 | > 30000
8 | Cc1cc(NC(=O)c2c(C)c(C(=O)C(=O)N[C@@H]3CC[C@@H](O)[C@@H]3O)n(CCF)c2C)ccc1F [Example 197] | 50 to 499 | > 30000
9 | Cc1cc(NC(=O)c2c(C)c(C(=O)C(=O)NC3(CN4CCOCC4)CCCC3)n(C)c2C)ccc1F [Example 595, N-(4-fluoro-3-methylphenyl)-1,2,4-trimethyl-5-(2-((1-(morpholinomethyl)cyclopentyl)amino)-2-oxoacetyl)-1H-pyrrole-3-carboxamide] | < 50 | > 30000
10 | Cc1c(C(=O)NC2CCCC2)c2n(c1C(=O)C(=O)NC1(CO)CCC1)CCCC2 [Example 746, N-cyclopentyl-3-(2-((1-(hydroxymethyl)cyclobutyl)amino)-2-oxoacetyl)-2-methyl-5,6,7,8-tetrahydroindolizine-1-carboxamide] | 50 to 499 | > 30000
11 | Cc1cc(NC(=O)c2c(C)c(C(=O)C(=O)N[C@H](C(=O)O)[C@@H](C)O)n(C)c2C)ccc1F [Example 34, (2-(4-((4-fluoro-3-methylphenyl)carbamoyl)-1,3,5-trimethyl-1H-pyrrol-2-yl)-2-oxoacetyl)-L-threonine] | > 1000 | > 30000
12 | Cc1cc(NC(=O)c2c(C)c(C(=O)C(=O)NC(C)(C)C(F)(F)F)n(C)c2C)cnc1F [Example 173, N-(6-fluoro-5-methylpyridin-3-yl)-1,2,4-trimethyl-5-(2-oxo-2-((1,1,1-trifluoro-2-methylpropan-2-yl)amino)acetyl)-1H-pyrrole-3-carboxamide] | < 50 | > 30000
13 | Cc1cc(NC(=O)c2c(C)c(C(=O)C(=O)N[C@H](C)[C@@H](C)O)n(C)c2C)ccc1F [Example 199, N-(4-fluoro-3-methylphenyl)-5-(2-(((2R,3R)-3-hydroxybutan-2-yl)amino)-2-oxoacetyl)-1,2,4-trimethyl-1H-pyrrole-3-carboxamide] | < 50 | > 30000
14 | Cc1cc(NC(=O)c2c(C)c(C(=O)C(=O)N[C@H]3CC[C@@H](O)CC3)n(C)c2C)cnc1F [Example 174, N-(6-fluoro-5-methylpyridin-3-yl)-5-(2-(((1s,4s)-4-hydroxycyclohexyl)amino)-2-oxoacetyl)-1,2,4-trimethyl-1H-pyrrole-3-carboxamide] | 50 to 499 | > 30000
15 | Cc1cc(NC(=O)c2c(C)c(C(=O)C(=O)NC3(C(=O)NC(C)(C)CO)CCOCC3)n(C)c2C)ccc1F [Example 681, N-(4-fluoro-3-methylphenyl)-5-(2-((4-((1-hydroxy-2-methylpropan-2-yl)carbamoyl)tetrahydro-2H-pyran-4-yl)amino)-2-oxoacetyl)-1,2,4-trimethyl-1H-pyrrole-3-carboxamide] | < 50 | > 30000
16 | Cc1cc(NC(=O)c2cc(C(=O)C(=O)NC(C)(C)CO)n3c2CCCC3)cc(F)c1F [Example 425, N-(3,4-difluoro-5-methylphenyl)-3-(2-((1-hydroxy-2-methylpropan-2-yl)amino)-2-oxoacetyl)-5,6,7,8-tetrahydroindolizine-1-carboxamide] | 50 to 499 | > 30000
17 | Cc1cc(NC(=O)c2c(C)c(C(=O)C(=O)NC3(C)CCN(C(=O)Nc4ccc(F)c(F)c4)CC3)n(C)c2C)ccc1F [Example 707, N-(3,4-difluorophenyl)-4-(2-(4-((4-fluoro-3-methylphenyl)carbamoyl)-1,3,5-trimethyl-1H-pyrrol-2-yl)-2-oxoacetamido)-4-methylpiperidine-1-carboxamide] | < 50 | 500 to 4990
18 | Cc1cc(NC(=O)c2c(C)c(C(=O)C(=O)NC3(c4noc(C(F)F)n4)CCC3)n(C)c2C)cnc1F [Example 159, 5-(2-((1-(5-(difluoromethyl)-1,2,4-oxadiazol-3-yl)cyclobutyl)amino)-2-oxoacetyl)-N-(6-fluoro-5-methylpyridin-3-yl)-1,2,4-trimethyl-1H-pyrrole-3-carboxamide] | < 50 | > 30000
19 | Cc1cc(NC(=O)c2c(C)c(C(=O)C(=O)Nc3cc(F)[nH]c(=O)c3)n(C)c2C)ccc1F [Example 674, 5-(2-((6-fluoro-2-oxo-1,2-dihydropyridin-4-yl)amino)-2-oxoacetyl)-N-(4-fluoro-3-methylphenyl)-1,2,4-trimethyl-1H-pyrrole-3-carboxamide] | 50 to 499 | 5000 to 30000
20 | Cc1cc(NC(=O)c2c(C)c(C(=O)C(=O)N[C@H]3CC[C@@H](O)CC3)n(C)c2C)cc(Cl)n1 [Example 628, N-(2-chloro-6-methylpyridin-4-yl)-5-(2-(((1s,4s)-4-hydroxycyclohexyl)amino)-2-oxoacetyl)-1,2,4-trimethyl-1H-pyrrole-3-carboxamide] | < 50 | > 30000
